From patent publication US20240100133A1, “ENZYMATICALLY INACTIVE GRANZYME A AND USES THEREFORE” (Saint Louis University, priority 2022, published 2024)

Test system: Connaught BCG within primary CD14+ human monocytes
Format: cell-based

PACMA-31 [reference compound]
effect of PDIA1 inhibitor on GzmA-mediated mycobacterial inhibition, BCG (PACMA-31 200 nM or Rutin 50 μM pretreatment combined with GzmA-WT): enhanced mycobacterial inhibitory activity | intracellular bacterial burden, PDIA1 inhibitor alone (PACMA-31 200 nM or Rutin 50 μM, 30 min pretreatment, no GzmA): did not influence the intracellular bacterial burden
